Several values for one entry are separate records, joined by “and”; a condition that tells them apart may be missing. Equal entries are not always repeated. Marks after values point to notes of the source that are not given here.
Experiments:
HCT-15 (Colon) = assay: Antiproliferative assay, HCT-15; format: cell-based, human; conditions: HCT-15, 5 d exposure, mean ± SD, n = 3; read-out: IC50 for growth inhibition
Description: Human colorectal adenocarcinoma cell line HCT-15 (ATCC CCL 225) is from the American Type Culture Collection (Rockville, Md., USA), and the cells are cultivated in vitro as recommended by the supplier. HCT-15 is an epithelial-like cell line. (Cancer Res. 39: 1020-25 [1979]) that is multi-drug resistant by virtue of over-expression of P-glycoprotein (P-gp, gp170, MDR-1;Anticancer Res. 11: 1309-12 [1991]; J. Biol. Chem. 264: 18031-40 [1989]; Int. J. Cancer 1991; 49: 696-703 [1991]) and glutathione-dependent resistance mechanisms (Int. J. Cancer 1991; 49: 688-95 [1991]).
Antiproliferative assays are performed as previously described (Int. J. Cancer 43, 851-6 (1989)). Briefly, cells are seeded at 1.5×10^3 cells/well into 96-well microtiter plates and incubated overnight. Compounds are added in serial dilutions on day 1. The plates are then incubated for an additional 2 to 5 days, allowing for at least one cell doubling (cell line dependent), after which the cells are fixed with 3.3% v/v glutaraldehyde, washed with water and stained with 0.05% w/v methylene blue. After washing, the dye is eluted with 3% v/v HCl and the optical density measured at 665 nm with a SpectraMax 340 (Bucherer, Basel, Switzerland). IC50 values are determined by a computerized system (SoftPro, Bucherer, Basel, Switzerland) using the formula (OD test−OD start)/(OD control−OD start)×100. […]

[1] = tested on: human estrogen-dependent ZR-75-1 breast tumors; assay: Antitumor effect against s.c. transplanted ZR-75-1 breast tumors; format: in vivo, female BALB/c nude mice
Protocol: Female or male BALB/c nu/nu (nude) mice are kept under sterile conditions (10 to 12 mice per Type III cage) with free access to food and water. Mice weigh between 20 and 25 grams at the time of tumor implantation. Tumors are established by subcutaneous injection of cells (minimum 2×10^6 cells in 100 μl PBS or medium) in carrier mice (4-8 mice per cell line). The resulting tumors are serially passaged for a minimum of three consecutive transplantations prior to start of treatment. Tumor fragments (approx. 25 mg) are implanted s.c. into the left flank of animals with a 13-gauge trocar needle while the mice are exposed to Forene (Abbott, Switzerland) anesthesia.
Tumor growth and body weights are monitored once or twice weekly. All treatments are administered intravenously (i.v.) and are initiated when a mean tumor volume of approximately 100 to 250 mm^3 is attained, depending upon the tumor type. Tumor volumes are determined using the formula […] (see Cancer Chemother. Pharmacol. 24:148-154, [1989]). Treatments with epothilone B vary the dose and the frequency of administration. Comparator agents are administered according to previously determined optimal treatment regimens. In addition to presenting changes in tumor volumes over the course of treatment, antitumor activity is expressed as T/C % (mean increase of tumor volumes of treated animals divided by the mean increase of tumor volumes of control animals multiplied by 100). Tumor. regression (%) represents the smallest mean tumor volume compared to the mean tumor volume at the start of treatment, according to the formula Regression (%)=(1−Vend/Vstart)×100(Vend=final mean tumor volume, Vstart=mean tumor volume at the start of treatment. Any animals in which the tumor has reached a size exceeding approximately 1.5 to 2.5 cm^3 are sacrificed. Details can be found below.

[2] = tested on: A549 non-small cell lung tumors; assay: Antitumor activity on A549 tumors, once weekly dosing (Example 8); format: in vivo, outbred athymic (nu/nu) mice; conditions: for body weight loss: 3 weeks experiment, reversible
Description: Materials and methods pertaining to the human tumor xenograft model are as previously described.
Measurements are taken for an additional 2 weeks after completion of the regular 3 weeks experiments, to evaluate reversibility of drug-induced body weight loss, and sustainability of antitumor effects.

[3] = tested on: KB-8511 (Epidermoid, MDR); assay: Antiproliferative assay, KB-8511; format: cell-based, human
Protocol: The human epidermal (mouth) carcinoma cell line KB-8511 (a P-gp over-expressing cell line derived from the epidermoid (mouth) KB-31 carcinoma cell line) is obtained from Dr. R. M. Baker, Roswell Park Memorial Institute (Buffalo, N.Y., USA) (for description see Akiyama et al., Somat. Cell. Mol. Genetics 11, 117-126 (1985) and Fojo A., et al., Cancer Res. 45, 3002-3007 (1985)) and is cultured as previously described (Meyer, T., et al., Int. J. Cancer 43 851-856 (1989)).
Antiproliferative assays are performed as previously described (Int. J. Cancer 43, 851-6 (1989)). Briefly, cells are seeded at 1.5×10^3 cells/well into 96-well microtiter plates and incubated overnight. Compounds are added in serial dilutions on day 1. The plates are then incubated for an additional 2 to 5 days, allowing for at least one cell doubling (cell line dependent), after which the cells are fixed with 3.3% v/v glutaraldehyde, washed with water and stained with 0.05% w/v methylene blue. After washing, the dye is eluted with 3% v/v HCl and the optical density measured at 665 nm with a SpectraMax 340 (Bucherer, Basel, Switzerland). IC50 values are determined by a computerized system (SoftPro, Bucherer, Basel, Switzerland) using the formula (OD test−OD start)/(OD control−OD start)×100. IC50 is defined as the drug concentration which leads to 50% of cells per well compared to control cultures (100%) at the end of incubation period.

[4] = 1 mg/kg, i.v. every 7 days, day 47
[5] = 2 mg/kg, i.v. every 7 days, day 47
[6] = 4 mg/kg, i.v. every 7 days, day 47
[7] = 4 mg/kg, i.v. every 14 days, day 47
[8] = 1 mg/kg i.v. once weekly for 3 weeks, day 34
[9] = 1 mg/kg once weekly for 3 weeks, extended observation, day 48
[10] = 2 mg/kg i.v. once weekly for 3 weeks, day 34
[11] = 2 mg/kg once weekly for 3 weeks, extended observation, day 48
[12] = 3 mg/kg i.v. once weekly for 3 weeks, day 34
[13] = 3 mg/kg once weekly for 3 weeks, extended observation, day 48
[14] = 3.5 mg/kg i.v. once weekly for 3 weeks, day 34
[15] = 3.5 mg/kg once weekly for 3 weeks, extended observation, day 48

## C/C(=C\c1csc(C)n1)[C@@H]1C[C@@H]2O[C@]2(C)CCC[C@H](C)[C@H](O)[C@@H](C)C(=O)C(C)(C)[C@@H](O)CC(=O)O1 [epothilone B]
HCT-15 (Colon)
  IC50: 0.41 ± 0.15 nM
[1]; [4]
  % Body Weight Change: 2 ± 5%
  Regression: none
  Survival (No. alive/total): 4/6
  T/C (%): 86%
  Δ Body Weight: 0.3 ± 1.2 g
  Δ Tumor Volume (mm^3): 393 ± 135 mm^3
[1]; [5]
  % Body Weight Change: −14 ± 6%
  Regression: none
  Survival (No. alive/total): 5/6
  T/C (%): 40%
  Δ Body Weight: -3.5 ± 1.6 g
  Δ Tumor Volume (mm^3): 227 ± 76 mm^3
[1]; 4 mg/kg, i.v. every 7 days (days 19, 26 and 33), day 47
  T/C (%): 1%
[1]; [6]
  % Body Weight Change: −5 ± 3%
  Survival (No. alive/total): 3/6
  Δ Body Weight: -1.2 ± 0.6 g
  Δ Tumor Volume (mm^3): 29 ± 16 mm^3
[1]; 4 mg/kg, i.v. every 7 days, transient
  Regression: −8%
[1]; 4 mg/kg, i.v. every 14 days (days 19 and 33), day 47
  T/C (%): 46%
[1]; [7]
  % Body Weight Change: −7 ± 5%
  Regression: none
  Survival (No. alive/total): 4/6
  Δ Body Weight: -1.6 ± 1.1 g
  Δ Tumor Volume (mm^3): 208 ± 86 mm^3
[2]; [8]
  % T/C: 74% and 74^*,** %
  Dead/Total: 0/8
  Delta % Body Weight: +10.8%
  Delta Mean Tumor Vol. (mm^3 ± SEM): 195 ± 21 mm^3
[2]; [9]
  Dead/Total: 0/8
  Delta % Body Weight: +12.6%
  Delta Mean Tumor Vol. (mm^3 ± SEM): 339 ± 24 mm^3
[2]; 1 mg/kg once weekly for 3 weeks, extended observation, day 48 (week 5)
  % T/C: 72%
[2]; [10]
  % T/C: 43% and 43*^,** %
  Dead/Total: 0/8
  Delta % Body Weight: +0.9%
  Delta Mean Tumor Vol. (mm^3 ± SEM): 113 ± 21 mm^3
[2]; [11]
  Dead/Total: 0/8
  Delta % Body Weight: +13.5%
  Delta Mean Tumor Vol. (mm^3 ± SEM): 232 ± 39 mm^3
[2]; 2 mg/kg once weekly for 3 weeks, extended observation, day 48 (week 5)
  % T/C: 49* %
[2]; [12]
  % T/C: 23% and 23*^,** %
  Dead/Total: 0/8
  Delta % Body Weight: −16.4%
  Delta Mean Tumor Vol. (mm^3 ± SEM): 60 ± 22 mm^3
[2]; [13]
  Dead/Total: 0/8
  Delta % Body Weight: +13.2%
  Delta Mean Tumor Vol. (mm^3 ± SEM): 75 ± 25 mm^3
[2]; 3 mg/kg once weekly for 3 weeks, extended observation, day 48 (week 5)
  % T/C: 16*^,** %
[2]; 3 mg/kg once weekly
  body weight loss: approximately 15%
[2]; [14]
  % T/C: 15% and 15*^,** %
  Dead/Total: 0/8
  Delta % Body Weight: −14.6%
  Delta Mean Tumor Vol. (mm^3 ± SEM): 40 ± 15 mm^3
[2]; [15]
  Dead/Total: 0/8
  Delta % Body Weight: +9.7%
  Delta Mean Tumor Vol. (mm^3 ± SEM): 58 ± 25 mm^3
[2]; 3.5 mg/kg once weekly for 3 weeks, extended observation, day 48 (week 5)
  % T/C: 12*^,** %
[2]; 3.5 mg/kg once weekly
  body weight loss: approximately 15%
[3]; KB-8511, 2 d exposure, mean ± SD, read-out: IC50 for growth inhibition
  IC50: 0.89 ± 0.47 nM
[3]; KB-8511 vs parental line
  relative resistance, IC50 (resistant line)/IC50 (parental line): (1.25)

From patent US7875601B2, “Cancer treatment with epothilones” (Novartis AG, priority 1998, dated 2011)
